Data on 21 compounds can be found in US20220380347A1, “INHIBITORS OF CYSTEINE PROTEASES AND METHODS OF USE THEREOF” (Pardes Biosciences, Inc., priority 2020, published 2022).

Where two headings read alike, the source gives them in different places. A value given as a limit tells only on which side of the number the result lay.

In experiment [1] the target is COVID-19 (nCoV-2019, SARS-CoV2) Mpro (Severe acute respiratory syndrome coronavirus 2, UniProt P0DTD1). As to the kind of experiment: COVID-19 (nCoV-2019, SARS-CoV2) Mpro enzymatic assay. The experiment is classed as biochemical. The settings on record: 25 nM Mpro, 25 μM substrate; read-out: COVID-19 Mpro IC50.
A further experiment relates to HCov OC43. Description: HCoV OC43 cytopathic effect (CPE) assay, CellTiter Glo. The experiment is classed as cell-based, human coronavirus (HCov) OC43. (In general: Damage to the host cells serves as the signal in cytopathic effect assays.)
The target in another experiment is 229E Mpro (Human coronavirus 229E, UniProt P0C6X1). Description: 229E Mpro enzymatic assay (standard methods, SARS-CoV2 Mpro assay given as exemplary). The experiment is classed as biochemical, human coronavirus (HCov) 229E. The method in brief: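 IC50 for 229E Mpro by standard methods; exemplary SARS-CoV-2 protocol used C-His6-tagged Mpro from E. coli, 25 nM enzyme, 25 μM substrate (Km 13.5 μM), in Tris-HCl pH 7.3, NaCl, EDTA, TCEP, 0.1% BSA. Inhibition normalised to no-compound and full-effect controls; four-parameter fit.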
229E Mpro, sequence (P0C6X1 2966-3267): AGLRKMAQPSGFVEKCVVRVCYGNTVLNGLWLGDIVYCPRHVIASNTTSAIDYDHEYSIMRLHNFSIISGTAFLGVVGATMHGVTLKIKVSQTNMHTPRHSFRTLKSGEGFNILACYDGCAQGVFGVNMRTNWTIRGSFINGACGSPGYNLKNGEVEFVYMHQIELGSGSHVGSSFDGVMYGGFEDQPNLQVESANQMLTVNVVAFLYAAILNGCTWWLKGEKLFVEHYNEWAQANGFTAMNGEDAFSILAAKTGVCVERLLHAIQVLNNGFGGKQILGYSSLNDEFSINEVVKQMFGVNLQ

[2] abbreviates: read-out: OC43 IC50 (uM) MEDIAN, median.
Setting [3] is: Betacoronavirus 1, OC43, read-out: OC43 IC50 (uM) MEDIAN, median.

For orientation: IC50 means the concentration that inhibits the measured activity by half. Usually EC50 stands for the concentration giving half of the maximal effect. Take `CO[C@@H]1C[C@H](C(=O)N(c2ccc(C(C)(C)C)cc2)C(C)(C(=O)NC2CCCCC2)c2cccnc2)N(C#N)C1` (single isomer, unassigned) [1230 Isomer 2]: the IC50 in experiment [1] is below 2000 nM; in the experiment on HCov OC43 (setting [2]), below 2 µM. At 229E Mpro (229E Mpro EC50), this compound registered an EC50 below 2000 nM.
Take `CC1(C)CN(C#N)[C@@H](C(=O)N(c2ccc(C(C)(C)C)cc2)C(C(=O)NC2CCOCC2)c2cccnc2)CO1` (single isomer, unassigned) [Compound 1141]: the concentration for half-maximal inhibition (IC50) is below 2000 nM in experiment [1] and 2 to 10 µM in the experiment on HCov OC43 (setting [3]). The EC50 on 229E Mpro (229E Mpro EC50) was below 2000 nM.
With `CN(C)C1CN(C(=O)C(c2cccnc2)N(C(=O)[C@H]2CCCN2C#N)c2ccc(C(C)(C)C)cc2)C1` (stereo partly drawn) [Compound 975, (2R)—N-(4-(tert-butyl)phenyl)-1-cyano-N-(2-(3-(dimethylamino)azetidin-1-yl)-2-oxo-1-(pyridin-3-yl)ethyl)pyrrolidine-2-carboxamide], the figures for the IC50 (in experiment [1]; with HCov OC43 (setting [3])) were 10000 to 30000 nM and 10 to 30 µM, respectively. For the same compound, on 229E Mpro (229E Mpro EC50), the EC50 lay in the range of 2000 to 10000 nM.
Regarding `CC1(C)CCNc2cc(N(C(=O)[C@H]3C[C@@](C)(O)CN3C#N)C(C(=O)NC3CCC(F)(F)CC3)c3cncc(F)c3)ccc21` (single isomer, unassigned) [Compound 1127 Isomer 1], the IC50 in experiment [1] was below 2000 nM; with HCov OC43 (setting [2]), below 2 µM. The same compound returned an EC50 at 229E Mpro (229E Mpro EC50) below 2000 nM.
With `CC(C)(C)c1ccc(N(C(=O)[C@H]2CCCN2C#N)C(C(=O)NCCN2CCOCC2)c2cccnc2)cc1` (single isomer, unassigned) [391 Isomer 1], the IC50 was below 2000 nM in experiment [1] and below 2 µM in the experiment on HCov OC43 (setting [2]). Further, the EC50 on 229E Mpro (229E Mpro EC50) was below 2000 nM.
As to `CC(C)(C)c1ccc(N(C(=O)[C@H]2CCCN2C#N)C(C(=O)N2CCNC(=O)C2)c2cccnc2)cc1` (single isomer, unassigned) [Compound 961 Isomer 2], the concentration for half-maximal inhibition (IC50) in experiment [1] is above 30000 nM; with HCov OC43 (read-out: OC43 IC50 (uM) MEDIAN, median, listed as 961 Isomer 2), 10 to 30 µM. The same compound came in with an EC50 at 229E Mpro (229E Mpro EC50) of 2000 to 10000 nM.
On to `CC(C(=O)NC1CCC(F)(F)CC1)(c1cccnc1)N(C(=O)[C@H]1[C@@H]2C[C@@H]2CN1C#N)c1ccc(S(F)(F)(F)(F)F)cc1` (single isomer, unassigned) [Compound 1251 Isomer 1], for which the IC50 in experiment [1] lay in the range of 2000 to 10000 nM; with HCov OC43 (setting [3]), 2 to 10 µM. Further, the EC50 on 229E Mpro (read-out: 229E Mpro EC50) was below 2000 nM.
For `C[C@@]1(O)C[C@H](C(=O)N(c2ccc(S(F)(F)(F)(F)F)cc2)C(C(=O)NC2CCOCC2)c2cnccn2)N(C#N)C1` (stereo partly drawn) [Compound 1322, (2R,4R)-1-cyano-4-hydroxy-4-methyl-N-[2-oxo-1-pyrazin-2-yl-2-(tetrahydropyran-4-ylamino)ethyl]-N-[4-(pentafluoro-λ6-sulfanyl)phenyl]pyrrolidine-2-carboxamide], the results for the IC50 (in experiment [1]; in the experiment with HCov OC43 (setting [3])) were below 2000 nM and below 2 µM, respectively. The compound also had an EC50 at 229E Mpro (229E Mpro EC50) below 2000 nM.
As to `CC1(O)CN(C(=O)C(c2cccnc2)N(C(=O)[C@H]2CCCN2C#N)c2ccc(C(C)(C)C)cc2)C1` (single isomer, unassigned) [955 Isomer 1], the IC50 in experiment [1] was 2000 to 10000 nM; with HCov OC43 (setting [2]), 2 to 10 µM. This compound registered an EC50 at 229E Mpro (229E Mpro EC50) of 2000 to 10000 nM.
As to `N#CN1CCOC[C@@H]1C(=O)N(c1ccc(S(F)(F)(F)(F)F)cc1)C(C(=O)NC1CCC(F)(F)CC1)c1cccnc1` (stereo partly drawn) [Compound 1315, (3R)-4-cyano-N-[2-[(4,4-difluorocyclohexyl)amino]-2-oxo-1-(3-pyridyl)ethyl]-N-[4-(pentafluoro-λ6-sulfanyl)phenyl]morpholine-3-carboxamide], the figures for the IC50 (in experiment [1]; with HCov OC43 (setting [3])) were below 2000 nM and below 2 µM, respectively. Further, at 229E Mpro (229E Mpro EC50), the EC50 was below 2000 nM.
As to `CO[C@@H]1C[C@H](C(=O)N(c2ccc(S(F)(F)(F)(F)F)cc2)C(C(=O)NC(C)C2CCCCN2C(=O)OC(C)(C)C)c2cccnc2)N(C#N)C1` (single isomer, unassigned) [1303 Isomer 2.1], the IC50 was in the range of 2000 to 10000 nM in experiment [1] and 10 to 30 µM with HCov OC43 (setting [2]). Further, the EC50 at 229E Mpro (229E Mpro EC50) was 2000 to 10000 nM.
`CC(C(=O)NC1CCC(F)(F)CC1)(c1cccnc1)N(C(=O)[C@H]1C[C@@](C)(O)CN1C#N)c1ccc(S(F)(F)(F)(F)F)cc1` (single isomer, unassigned) [Compound 1077 Isomer 1]: the IC50 in experiment [1] was in the range of 10000 to 30000 nM; with HCov OC43 (setting [3]), 2 to 10 µM. The compound further showed an EC50 at 229E Mpro (229E Mpro EC50) below 2000 nM.
For `CN(C(=O)C(c1cccnc1)N(C(=O)[C@H]1CCCN1C#N)c1ccc(C(C)(C)C)cc1)C1CCCCC1` (stereo partly drawn) [Compound 1228, (2R)—N-(4-(tert-butyl)phenyl)-1-cyano-N-(2-(cyclohexyl(methyl)amino)-2-oxo-1-(pyridin-3-yl)ethyl)pyrrolidine-2-carboxamide] the same measures were 2000 to 10000 nM, 10 to 30 µM and below 2000 nM.
For `CO[C@@H]1C[C@H](C(=O)N(c2ccc(S(F)(F)(F)(F)F)cc2)C(C(=O)NCC2(C)CCCN(C(=O)OC(C)(C)C)C2)c2cccnc2)N(C#N)C1` (single isomer, unassigned) [1290 Isomer 1] the same measures were below 2000 nM, 2 to 10 µM and below 2000 nM.
Consider `CC(C)(C)c1ccc(N(C(=O)[C@H]2C[C@@](C)(O)CN2C#N)C(C(=O)NC2CCOCC2)c2cccnc2)cc1` (single isomer, unassigned) [1142 Isomer 2], for which the IC50 in experiment [1] is 2000 to 10000 nM; with HCov OC43 (setting [2]), 10 to 30 µM. The EC50 at 229E Mpro (read-out: 229E Mpro EC50) was below 2000 nM.
The corresponding values for `CO[C@@H]1C[C@H](C(=O)N(c2ccc(S(F)(F)(F)(F)F)cc2)C(C(=O)NC2CCC(F)(F)CC2)c2cnccc2C(F)(F)F)N(C#N)C1` (single isomer, unassigned) [1202 Isomer 2] are below 2000 nM, below 2 µM and below 2000 nM.
For the compound `CC1(C)CCN(C#N)[C@H]1C(=O)N(c1ccc(S(F)(F)(F)(F)F)cc1)C(C(=O)NC1CCC(F)(F)CC1)c1cncc(F)c1` (single isomer, unassigned) [1094 Isomer 1], the IC50 in experiment [1] was below 2000 nM; in the experiment with HCov OC43 (setting [2]), below 2 µM. Moreover, the EC50 on 229E Mpro (229E Mpro EC50) is below 2000 nM.
As to `N#CN1CCOC[C@@H]1C(=O)N(c1ccc(C2CC2)cc1F)C(C(=O)NC1CCC(F)(F)CC1)c1cnccc1C(F)(F)F` (single isomer, unassigned) [Compound 1313 Isomer 1], the IC50 in experiment [1] was below 2000 nM; with HCov OC43 (setting [3]), below 2 µM. Besides, the EC50 on 229E Mpro (229E Mpro EC50) is below 2000 nM.
On to `CO[C@@H]1C[C@H](C(=O)N(c2ccc(S(F)(F)(F)(F)F)cc2)C(C(=O)N2CCN(C(=O)OC(C)(C)C)C2)c2cccnc2)N(C#N)C1` (single isomer, unassigned) [1148d Isomer 1], for which the IC50 is 2000 to 10000 nM in experiment [1] and below 2 µM in the experiment on HCov OC43 (setting [3]). The EC50 at 229E Mpro (229E Mpro EC50) was below 2000 nM.
For `CN1CN(C(=O)C(c2cccnc2)N(C(=O)[C@H]2CCCN2C#N)c2ccc(C(C)(C)C)cc2)CC1=O` (stereo partly drawn) [Compound 962, (2R)—N-(4-(tert-butyl)phenyl)-1-cyano-N-(2-(3-methyl-4-oxoimidazolidin-1-yl)-2-oxo-1-(pyridin-3-yl)ethyl)pyrrolidine-2-carboxamide] the same measures were 10000 to 30000 nM, 10 to 30 µM and 2000 to 10000 nM.
The corresponding values for `O=C(NC1CCC(F)(F)CC1)C(c1cncc(F)c1)N(C(=O)c1cnc[nH]1)c1ccc(C2CC2)cc1F` (single isomer, unassigned) [1336 Isomer 1, N-(4-cyclopropyl-2-fluorophenyl)-N-(2-((4,4-difluorocyclohexyl)amino)-1-(5-fluoropyridin-3-yl)-2-oxoethyl)-1H-imidazole-5-carboxamide] are 10000 to 30000 nM, above 30 µM and 2000 to 10000 nM.
